Assay [1] deals with human stomach cancer cell line SNU-16 (FGFR2 gene amplification). The assay can be described thus: SNU-16 growth inhibition assay. It is filed as cell-based. The conditions noted are these: Homo sapiens, SNU-16, 72 h, read-out: SNU-16 (IC50 (nM)), cell growth, 3 days, Cell Counting Kit-8. Here is the method: In this assay, the growth inhibitory activity of a test substance in a human stomach cancer cell line harboring FGFR2 gene amplification is measured.
Then, 10 μL of Cell Counting Kit-8 (Dojindo Laboratories, CK04) was added to each well, and the resultant was incubated for 1 to 2 hours in a 5% CO2 incubator (37° C.) to cause a color reaction. The absorbance value was measured with ENVISION™ (PerkinElmer Co., Ltd.) at 450 nm.

The subject of assay [2] is normal human umbilical vein endothelial cells (HUVEC). The assay can be described thus: HUVEC growth inhibition assay (VEGF-induced). Format: cell-based. The conditions noted are these: Homo sapiens, HUVEC, 72 h, read-out: HUVEC (IC50 (nM)), growth in the presence of VEGF 10 ng/mL, 3 days. Here is the method: The absorbance value was measured with ENVISION™ (PerkinElmer Co., Ltd.) at 450 nm. The absorbance values of the wells without adding the test substance but with VEGF addition was defined as 100% and the absorbance values of the wells with neither the test substance nor VEGF addition was defined as 0%.

Consider `CNC(=O)n1ccc2cc(Oc3ccnc(NC(=O)c4cnn(C5CCN(C[C@H](C)O)CC5)c4)c3)c(OC)cc21` [Example 45], for which the IC50 in assay [1] was 15.5 nM; in assay [2], 379 nM.
For `CNC(=O)n1ccc2cc(Oc3ccnc(NC(=O)c4cnn(C5CCN(C(C)C)CC5)c4)c3)c(OC)cc21` [Example 46] the same measures were 17.4 nM and 402 nM.
For `CNC(=O)n1ccc2cc(Oc3ccnc(NC(=O)c4ccc(C5CN(C(C)C)C5)cc4)c3)c(OC)cc21` [Example 47] the same measures were 13.1 nM and 174 nM.
For `CNC(=O)n1ccc2cc(Oc3ccnc(NC(=O)c4ccc(C5CN(CC(C)(C)O)C5)cc4)c3)c(OC)cc21` [Example 48] the same measures were 11.7 nM and 77.8 nM.
On to `CCN1CC(c2ccc(C(=O)Nc3cc(Oc4cc5ccn(C(=O)NC)c5cc4OC)ccn3)cc2)C1` [Example 49], for which the IC50 in assay [1] came out at 9.6 nM; in assay [2], 163 nM.
For `CNC(=O)n1ccc2cc(Oc3ccnc(NC(=O)c4ccc(CN5CCC[C@@H]5CO)cc4)c3)c(OC)cc21` [Example 50] the same measures were 16.6 nM and 394 nM.
For `CNC(=O)n1ccc2cc(Oc3ccnc(NC(=O)c4ccc(CN5CCC[C@H]5CO)cc4)c3)c(OC)cc21` [Example 51] the same measures were 12.5 nM and 410 nM.
Take `CNC(=O)n1ccc2cc(Oc3ccnc(NC(=O)c4ccc(CN5CC[C@H](O)C5)cc4)c3)c(OC)cc21` [Example 52]: the IC50 in assay [1] is 14.4 nM; in assay [2], 388 nM.
Regarding `CNC(=O)n1ccc2cc(Oc3ccnc(NC(=O)c4ccc(CN5CC[C@@H](O)C5)cc4)c3)c(OC)cc21` [Example 53], the IC50 stood at 14.5 nM in assay [1] and 401 nM in assay [2].
For `CNC(=O)n1ccc2cc(Oc3ccnc(NC(=O)c4ccc(C5CCN(C[C@@H](C)O)CC5)cc4)c3)c(OC)cc21` [Example 54] the same measures were 6.4 nM and 86.7 nM.
For `CCN1CCN(CCOc2ccc(C(=O)Nc3cc(Oc4cc5ccn(C(=O)NC)c5cc4OC)ccn3)cc2)CC1` [Example 55] the same measures were 20.8 nM and 201 nM.
For `CNC(=O)n1ccc2cc(Oc3ccnc(NC(=O)c4ccc(CCN5CCC(O)CC5)cc4)c3)c(OC)cc21` [Example 56] the same measures were 15 nM and 96.8 nM.
Consider `CNC(=O)n1ccc2cc(Oc3ccnc(NC(=O)c4ccc(C5CCN(C)CC5)cc4)c3)c(OC)cc21` [Example 57], for which the results for the IC50 in assay [1] and in assay [2] were 7.6 nM and 127 nM, respectively.
For `CCOc1cc2c(ccn2C(=O)NC)cc1Oc1ccnc(NC(=O)c2ccc(C3CCN(C(C)C)CC3)cc2)c1` [Example 59] the same measures were 14.5 nM and 253 nM.
`CCOc1cc2c(ccn2C(=O)NC)cc1Oc1ccnc(NC(=O)c2ccc(C3CCN(C[C@@H](C)O)CC3)cc2)c1` [Example 60]: the IC50 in assay [1] is 14.7 nM; in assay [2], 178 nM.
For `CCOc1cc2c(ccn2C(=O)NC)cc1Oc1ccnc(NC(=O)c2ccc(C3CCN(C[C@H](C)O)CC3)cc2)c1` [Example 61] the same measures were 10.7 nM and 182 nM.
For `CCOc1cc2c(ccn2C(=O)NC)cc1Oc1ccnc(NC(=O)c2ccc(N3CCC(N4CCCC4)CC3)cc2)c1` [Example 62] the same measures were 27.4 nM and 223 nM.
For `CCOc1cc2c(ccn2C(=O)NC)cc1Oc1ccnc(NC(=O)c2ccc(C3CCN(CCO)CC3)cc2)c1` [Example 63] the same measures were 9.6 nM and 170 nM.
Consider `CCOc1cc2c(ccn2C(=O)NC)cc1Oc1ccnc(NC(=O)c2ccc(C3CCN(C)CC3)cc2)c1` [Example 64], for which the IC50 in assay [1] is 10.3 nM; in assay [2] it was 175 nM.
For `CCOc1cc2c(ccn2C(=O)NC)cc1Oc1ccnc(NC(=O)c2ccc(CN3CCC(O)CC3)cc2)c1` [Example 65] the same measures were 23.6 nM and 575 nM.

(Values after patent US8933099B2, “Monocyclic pyridine derivative” (Eisai R&D Management Co., Ltd., priority 2013, dated 2015).)
